Source: ChEMBL document CHEMBL3616373, “Identification of N-sulfonyl-tetrahydroquinolines as RORc inverse agonists” (Bioorg Med Chem Lett, 2015)

How the values were obtained:
HEK293 [1] = assay: Selectivity ratio of EC50 for GAL4-fused human PXR expressed in HEK293 cells to EC50 for GAL4-fused human RORc expressed in HEK293 cells; assay type: cell-based
MDCK = assay: Efflux ratio of apparent permeability across apical to basolateral side over basolateral to apical side in MDCK cells at 100 uM after 60 mins by HPLC analysis; assay type: ADME, cell-based, Canis lupus familiaris; details: dog, 1 h
HEK293 [2] = assay: Selectivity ratio of EC50 for GAL4-fused human RORa expressed in HEK293 cells to EC50 for GAL4-fused human RORc expressed in HEK293 cells; assay type: cell-based
[3] = biological target: T1, Nuclear receptor ROR-gamma (Homo sapiens, UniProt P51449); assay: Inverse agonist activity at N-terminal 6xHis-tagged human RORc ligand binding domain (241 to 486) expressed in bacterial expression system assessed as inhibition of SRC1 co-activator peptide recruitment after 3 hrs by TR-FRET analysis; assay type: functional
T1 sequence (P51449 whole entry): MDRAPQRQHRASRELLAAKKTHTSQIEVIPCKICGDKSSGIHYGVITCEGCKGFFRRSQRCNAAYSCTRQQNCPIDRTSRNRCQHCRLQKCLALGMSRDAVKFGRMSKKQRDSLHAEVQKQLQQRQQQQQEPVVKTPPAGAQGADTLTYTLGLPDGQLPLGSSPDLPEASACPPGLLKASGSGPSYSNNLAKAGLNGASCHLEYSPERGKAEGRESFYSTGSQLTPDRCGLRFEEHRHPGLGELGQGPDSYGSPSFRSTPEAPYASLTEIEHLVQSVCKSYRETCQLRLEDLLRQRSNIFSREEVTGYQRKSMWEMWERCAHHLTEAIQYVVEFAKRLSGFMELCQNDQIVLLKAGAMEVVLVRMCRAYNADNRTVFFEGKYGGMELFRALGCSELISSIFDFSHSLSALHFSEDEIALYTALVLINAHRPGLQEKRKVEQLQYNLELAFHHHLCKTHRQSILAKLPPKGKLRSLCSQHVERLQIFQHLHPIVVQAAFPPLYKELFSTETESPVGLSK

Ratio (MDCK): < 2
EC50 [3]: 86 nM
Structure (SMILES): O=C(Nc1ccc2c(c1)N(S(=O)(=O)c1ccc(F)cc1)CC2)c1c(F)cccc1F
Ratio EC50 (HEK293 [1]): 15
Ratio EC50 (HEK293 [2]): 28
